Data published in patent US20210261642A1, “SOLUBILITY OF GLP-1 PEPTIDE” (Novo Nordisk A/S, priority 2017, published 2021).

Test: Assay (I): Determination of Solubility (96-well plate, pH 3.0-11.0, organic solvent 0-70% w/w, UV absorption at 280 nm)
Format: physicochemical
Details: Method 1
Protocol: Assay (I): Determination of Solubility
96-Well Plate Preparation
96-well plates containing target peptide in a solid form were prepared in one of two ways:
Method 1 (evaporation): Addition of 100 μl stock solution of said peptide at a concentration of 4-6 mg/ml to each well of a 96-well half area plate (150 μl well size). Subsequently the solvent was evaporated by applying a vacuum until the solvent was completely removed.
Method 2 (precipitation): Addition of a certain volume of a stock solution of said peptide containing to each well of a 96-well half area plate followed by the addition of a certain volume of concentrated phosphoric acid to obtain a pH of 4.6 followed by addition of a certain volume of ethanol resulting in a final ethanol concentration of 20% v/v. Subsequently the plate was stored at 4° C. for 1 h and then centrifuged at 4,000 rpm for 20 min. Finally the supernatant was removed. The concentration of the stock solution was chosen in a way that the final amount of peptide after supernatant removal was >0.4 mg per well.
In both cases the stock solution was prepared by adding de-ionized water to a certain amount of powder of said peptide followed by a stepwise addition of small amounts of a concentrated sodium hydroxide solution until said peptide was completely in solution.
To determine solubility of a target peptide at different pH and organic solvent concentrations, two different buffer systems were used in independent experiments to cover the whole range from pH 3.0 to pH 11.0. Buffer system 1 covers pH 3.0-7.5 and buffer system 2 covers pH 7.5-11.0. For each buffer system 96 different solvent compositions were premixed in the following way: • 1. A low pH buffer (adjusted to either pH 3.0 or pH 7.5) and a high pH buffer (adjusted to either pH 7.5 or pH 11.0) were mixed at 8 different ratios to obtain values between pH 3.0 and pH 7.5 or pH 7.5 and pH 11.0, respectively. The total volume after mixing was 300 μl. • 2. 12 different amounts of organic solvent were then added to these buffers to obtain organic solvent (e.g. ethanol) concentrations between 0 and 70% w/w. • 3. Water was then added to obtain a total weight of 1.0 g of solvent in each well.
After preparing the 96 different solvent systems, 100 μl of each system was transferred to the 96-well plate containing the solid form of the target peptide (prepared as described in the section “96-well plate preparation”). The plate was then stored at a given temperature (between 5° C. and 70° C.) for a given time on a rotating shaker set to 400 rpm. At regular time intervals the plate was centrifuged (4,000 rpm for 10 min) and a 10 μl sample was taken from each well. The samples were then analysed by UV absorption at 280 nm for peptide quantification. Peptide concentration results are given as UV absorption at 280 nm of the sample subtracted UV absorption at 280 nm of a well comprising 10 μl water.
The buffers used were as follows: • Buffer system 1 (for the pH range from pH 3.0-7.5)
• Buffer system 2 (for the pH ranae from pH 7.5-11.0)
Solubility of liraglutide was determined using Assay (I) described herein. Liraglutide was prepared using Method 1 (evaporation) or Method 2 (precipitation) as described in subsection “96-well plate preparation”.

Peptide concentration after 5 min (MeCN 31.8% w/w, pH 10.0, 5° C.): 1.9 mg/mL
Peptide concentration after 180 min (MeCN 31.8% w/w, pH 10.0, 5° C.): >4.0 mg/mL
Peptide concentration after 24 h (MeCN 31.8% w/w, pH 10.0, 5° C.): 2.8 mg/mL
Peptide concentration after 5 min (MeCN 31.8% w/w, pH 10.5, 5° C.): 1.3 mg/mL
Peptide concentration after 180 min (MeCN 31.8% w/w, pH 10.5, 5° C.): 3.9 mg/mL
Peptide concentration after 24 h (MeCN 31.8% w/w, pH 10.5, 5° C.): 3.6 mg/mL
Peptide concentration after 5 min (MeCN 31.8% w/w, pH 11.0, 5° C.): 0.8 mg/mL
Peptide concentration after 180 min (MeCN 31.8% w/w, pH 11.0, 5° C.): 3.0 mg/mL
Peptide concentration after 24 h (MeCN 31.8% w/w, pH 11.0, 5° C.): >4.0 mg/mL
Peptide concentration after 5 min (MeCN 38.2% w/w, pH 8.0, 5° C.): 0.8 mg/mL
Peptide concentration after 180 min (MeCN 38.2% w/w, pH 8.0, 5° C.): 3.2 mg/mL
Peptide concentration after 24 h (MeCN 38.2% w/w, pH 8.0, 5° C.): >4.0 mg/mL
Peptide concentration after 5 min (MeCN 38.2% w/w, pH 8.5, 5° C.): 0.8 mg/mL
Peptide concentration after 180 min (MeCN 38.2% w/w, pH 8.5, 5° C.): 2.9 mg/mL
Peptide concentration after 24 h (MeCN 38.2% w/w, pH 8.5, 5° C.): >4.0 mg/mL
Peptide concentration after 5 min (MeCN 38.2% w/w, pH 9.0, 5° C.): 0.4 mg/mL
Peptide concentration after 180 min (MeCN 38.2% w/w, pH 9.0, 5° C.): 2.0 mg/mL
Peptide concentration after 24 h (MeCN 38.2% w/w, pH 9.0, 5° C.): >4.0 mg/mL
Peptide concentration after 5 min (MeCN 38.2% w/w, pH 9.5, 5° C.): 1.1 mg/mL
Peptide concentration after 180 min (MeCN 38.2% w/w, pH 9.5, 5° C.): 3.9 mg/mL
Peptide concentration after 24 h (MeCN 38.2% w/w, pH 9.5, 5° C.): 4.0 mg/mL
Peptide concentration after 5 min (MeCN 38.2% w/w, pH 10.0, 5° C.): 1.5 mg/mL
Peptide concentration after 180 min (MeCN 38.2% w/w, pH 10.0, 5° C.): >4.0 mg/mL
Peptide concentration after 24 h (MeCN 38.2% w/w, pH 10.0, 5° C.): >4.0 mg/mL
Peptide concentration after 5 min (MeCN 38.2% w/w, pH 10.5, 5° C.): 1.2 mg/mL
Peptide concentration after 180 min (MeCN 38.2% w/w, pH 10.5, 5° C.): 3.2 mg/mL
Peptide concentration after 24 h (MeCN 38.2% w/w, pH 10.5, 5° C.): 2.1 mg/mL
Peptide concentration after 5 min (MeCN 38.2% w/w, pH 11.0, 5° C.): 0.6 mg/mL
Peptide concentration after 180 min (MeCN 38.2% w/w, pH 11.0, 5° C.): 2.7 mg/mL
Peptide concentration after 24 h (MeCN 38.2% w/w, pH 11.0, 5° C.): >4.0 mg/mL
Peptide concentration after 5 min (MeCN 44.5% w/w, pH 8.0, 5° C.): 0.7 mg/mL
Peptide concentration after 180 min (MeCN 44.5% w/w, pH 8.0, 5° C.): 2.8 mg/mL
Peptide concentration after 24 h (MeCN 44.5% w/w, pH 8.0, 5° C.): >4.0 mg/mL
Peptide concentration after 5 min (MeCN 44.5% w/w, pH 8.5, 5° C.): 1.1 mg/mL
Peptide concentration after 180 min (MeCN 44.5% w/w, pH 8.5, 5° C.): 3.3 mg/mL
Peptide concentration after 24 h (MeCN 44.5% w/w, pH 8.5, 5° C.): >4.0 mg/mL
Peptide concentration after 5 min (MeCN 44.5% w/w, pH 9.0, 5° C.): 1.7 mg/mL
Peptide concentration after 180 min (MeCN 44.5% w/w, pH 9.0, 5° C.): 2.7 mg/mL
Peptide concentration after 24 h (MeCN 44.5% w/w, pH 9.0, 5° C.): >4.0 mg/mL
Peptide concentration after 5 min (MeCN 44.5% w/w, pH 9.5, 5° C.): 1.1 mg/mL
Peptide concentration after 180 min (MeCN 44.5% w/w, pH 9.5, 5° C.): 3.7 mg/mL
Peptide concentration after 24 h (MeCN 44.5% w/w, pH 9.5, 5° C.): 1.3 mg/mL
Peptide concentration after 5 min (MeCN 44.5% w/w, pH 10.0, 5° C.): 1.3 mg/mL
Peptide concentration after 180 min (MeCN 44.5% w/w, pH 10.0, 5° C.): 3.7 mg/mL
Peptide concentration after 24 h (MeCN 44.5% w/w, pH 10.0, 5° C.): >4.0 mg/mL
Peptide concentration after 5 min (MeCN 44.5% w/w, pH 10.5, 5° C.): 0.9 mg/mL
Peptide concentration after 180 min (MeCN 44.5% w/w, pH 10.5, 5° C.): 2.9 mg/mL
Peptide concentration after 24 h (MeCN 44.5% w/w, pH 10.5, 5° C.): >4.0 mg/mL
Peptide concentration after 5 min (MeCN 44.5% w/w, pH 11.0, 5° C.): 0.8 mg/mL
Peptide concentration after 180 min (MeCN 44.5% w/w, pH 11.0, 5° C.): 2.9 mg/mL
Peptide concentration after 24 h (MeCN 44.5% w/w, pH 11.0, 5° C.): >4.0 mg/mL
Peptide concentration after 5 min (MeCN 50.9% w/w, pH 8.0, 5° C.): 0.6 mg/mL
SMILES: CCCCCCCCCCCCCCCC(=O)N[C@@H](CCC(=O)NCCCC[C@H](NC(=O)[C@H](C)NC(=O)[C@H](C)NC(=O)[C@H](CCC(N)=O)NC(=O)CNC(=O)[C@H](CCC(=O)O)NC(=O)[C@H](CC(C)C)NC(=O)[C@H](Cc1ccc(O)cc1)NC(=O)[C@H](CO)NC(=O)[C@H](CO)NC(=O)[C@@H](NC(=O)[C@H](CC(=O)O)NC(=O)[C@H](CO)NC(=O)[C@@H](NC(=O)[C@H](Cc1ccccc1)NC(=O)[C@@H](NC(=O)CNC(=O)[C@H](CCC(=O)O)NC(=O)[C@H](C)NC(=O)[C@@H](N)Cc1cnc[nH]1)[C@@H](C)O)[C@@H](C)O)C(C)C)C(=O)N[C@@H](CCC(=O)O)C(=O)N[C@@H](Cc1ccccc1)C(=O)N[C@H](C(=O)N[C@@H](C)C(=O)N[C@@H](Cc1c[nH]c2ccccc12)C(=O)N[C@@H](CC(C)C)C(=O)N[C@H](C(=O)N[C@@H](CCCNC(=N)N)C(=O)NCC(=O)N[C@@H](CCCNC(=N)N)C(=O)NCC(=O)O)C(C)C)[C@@H](C)CC)C(=O)O [liraglutide, Arg34,Lys26-(N-epsilon-(gamma-L-glutamyl(N-alfa-hexadecanoyl)))-GLP-1(7-37)]
